Data set [1] addresses CCR5 receptor (Homo sapiens, UniProt P51681). The data set is described as follows: [35S]GTPγS binding assay. The class given is biochemical. From the text:
[^35S]GTPγS binding assay
CCR5 receptor binds to agonists and changes its conformation which enables it to interact with and activate G protein, a heterotrimer which consists of subunits α and βγ. The capability of G protein α subunit binding to GTP depends on the effect between CCR5 and the agonists, therefore, the amount of α subunit bound GTP should reflect the agonists activity on the CCR5 receptor. In the GTPγS binding assay, [^35S]GTPγS is resistant to the GTPase activity of α subunit, and thus cannot be hydrolyzed when bound to G protein, making it accurate to reflect the receptor activation. Radiolabled [^35S]GTPγS can also serve as marker for detection in place of GTP. When CCR5 is not activated, α subunit is bound to GDP, but when CCR5 is activated, α subunit binds to [^35S]GTPγS, therefore, measurement of the number of the α subunit-bound ^35S-GTPγS can reflect the CCR5 activation level.
CCR5 activation of G-protein was measured according to assays below:
Permanent cell line expressing CHO of CCR5 (available at Euroscreen S.A., Belgium) was lysed by lysis buffer (5 mM Tris HCl, pH 7.5, 5 mM EDTA and 5 mM EGTA), and centrifuged at 15,000×g for 10 min. Cell membrane was resuspended with reaction buffer (5 mM Tris HCl, pH 7.5, 5 mM MgCl2, 1 mM EGTA, 100 mM NaCl), and protein concentrations were determined using Bioford assay (Bio-rad). [^35S]GTPγS binding assay was performed in the 100 μl reaction buffer system, which contains 10 ug membrane protein, 40 uM GDP and 0.5 nM [^35S]GTPγS (1200 Ci/mmol). After adding the study compounds, the system was vortexed and placed on ice for 5 min, and then CCR5 agonist was added (10 nM RANTES or 30 nM MIP1β). After vortexing, the reaction tubes were incubated at 30° C. for 1 h. After the reaction was complete, the reaction tubes were placed on ice and diluted with PBS to terminate the reaction. After suction through the GF/C filter membrane under vacuum, the membrane bound radioactivity was measured with a scintillation counter. Basal binding was measured without presence of agonist, and non-specific binding was measured in the presence of 10 mM nonisotopical GTPγS. The binding ratio of [^35S]GTPγS was calculated according to 100×[c.p.m.sample−c.p.m. non-specific]/[c.p.m.basal−c.p.m. non-specific]. IC50 was the compound concentration at which half of the [^35S]GTPγS binding induced by 10 nM RANTES or 30 nM MIP1β was inhibited, and the value was obtained from the concentration-inhibition curve (6-7 points for concentrations of each compound).

The target of data set [2] is CXCR4 (Homo sapiens, UniProt P61073). The data set is described as follows: effects on the activation of CXCR4 receptor. The conditions noted are these: at the concentration of 10,000 nM.
In data set [3] the target is T1, CCR1 (Homo sapiens, UniProt P32246).
T1 sequence (P32246 1-355): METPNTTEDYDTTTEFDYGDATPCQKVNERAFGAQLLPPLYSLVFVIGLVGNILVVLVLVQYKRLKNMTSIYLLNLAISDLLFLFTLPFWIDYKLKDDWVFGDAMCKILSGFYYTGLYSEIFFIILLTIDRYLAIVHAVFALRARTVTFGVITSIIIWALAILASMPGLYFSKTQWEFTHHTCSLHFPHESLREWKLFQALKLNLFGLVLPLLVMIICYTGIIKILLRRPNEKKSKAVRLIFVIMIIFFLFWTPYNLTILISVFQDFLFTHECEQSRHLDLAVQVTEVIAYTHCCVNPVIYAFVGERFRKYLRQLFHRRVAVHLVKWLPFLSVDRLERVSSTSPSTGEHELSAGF
The data set is described as follows: effects on the activation of CCR1 receptor. The conditions noted are these: at the concentration of 10,000 nM.

Data set [4] can be described thus: MTT cytotoxicity assay. Type of data set: cell-based. The conditions noted are these: human, peripheral blood mononuclear cells (PBMC) and Jurkat cells; MTT. As to the method:
(§1) C. MTT Cytotoxicity Assay
(§2) Cells were prepared as single cell suspension, and cell densities were adjusted according to the cell size and cell features. Cells were inoculated with 100 ul culture media into 96 well plates, and incubated in 37° C. incubator (5% CO2, saturated humidity). The seeding densities were as follows: peripheral blood monouclear cells (PBMC) 10^5 cells /well, Jurket 4×10^4 cells/well. 24 h after cell inoculation, the compounds to be tested were added and incubated with cells. 48 h after inoculation, 10 μl MTT (Sigma, USA, 5 mg/ml, diluted with PBS and stored at −20° C.) was added to each well, and incubated for another 4 h in 37° C. incubator. Then add 50 μl formazane solvent (10%SDS-5%isopropanol−0.01M HCl) and incubate overnight. Determine OD570/OD630 nm at spectrophotometer, and calculate CC50 according to the inhibition curve.
In general terms: Formazan colour is commonly taken as a measure of viable cells.

Data set [5] concerns peripheral blood monouclear cells (PBMC), Jurket. The data set is described as follows: MTT cytotoxicity assay. Type of data set: cell-based. The conditions noted are these: at 10,000 nM. Here is the method: as §1, §2
[6] abbreviates: Table I, [35S]GTPγS binding, read-out: IC50.
Where [7] appears, read: [35S]GTPγS binding initiated by 10 nM RANTES, read-out: IC50(nM) ± S.E.
Setting [8] is: Table I, class symbols, inhibition at 10,000 nM, read-out: IC50.
The mark [9] stands for this setting: [35S]GTPγS binding initiated by 10 nM RANTES, class symbols, inhibition at 10,000 nM, read-out: IC50(nM) ± S.E.

The IC50 is the concentration needed to halve the response being measured. Usually CC50 stands for the concentration at which the toxic effect on the cells reaches its halfway point.

Molecules are shown by their SMILES. Read-outs that look alike come from different tables or passages of the source.

Chain of CCR5 receptor (P51681 whole entry): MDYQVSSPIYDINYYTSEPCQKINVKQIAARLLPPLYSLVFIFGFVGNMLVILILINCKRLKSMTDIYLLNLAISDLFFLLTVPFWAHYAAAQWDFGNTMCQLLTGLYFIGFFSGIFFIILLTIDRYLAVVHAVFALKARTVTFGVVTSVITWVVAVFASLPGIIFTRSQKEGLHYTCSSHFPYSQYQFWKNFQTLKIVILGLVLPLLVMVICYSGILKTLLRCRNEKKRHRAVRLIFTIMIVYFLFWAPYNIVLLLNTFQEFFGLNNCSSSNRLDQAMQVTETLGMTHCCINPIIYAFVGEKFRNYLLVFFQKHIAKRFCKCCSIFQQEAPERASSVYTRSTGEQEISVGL
Chain of CXCR4 (P61073 whole entry, species assumed): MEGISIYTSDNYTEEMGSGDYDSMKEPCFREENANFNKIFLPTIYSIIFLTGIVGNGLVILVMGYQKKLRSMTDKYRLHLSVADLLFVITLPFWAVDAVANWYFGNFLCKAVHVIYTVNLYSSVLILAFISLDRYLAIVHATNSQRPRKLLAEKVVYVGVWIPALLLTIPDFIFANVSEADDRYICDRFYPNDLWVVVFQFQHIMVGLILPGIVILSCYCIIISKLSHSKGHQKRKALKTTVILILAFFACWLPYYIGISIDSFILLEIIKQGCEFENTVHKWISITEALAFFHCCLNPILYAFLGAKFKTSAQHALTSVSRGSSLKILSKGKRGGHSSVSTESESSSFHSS

`OC1(CCCc2ccccc2)CCN(CC2CN(Cc3ccccc3)CC2(O)c2ccccc2)CC1` (centres unmarked) [I-b-h, 1-[(1-benzyl-4-hydroxy-4-phenylpyrrolidin-3-yl)methyl]-4-(3-phenylpropyl)piperidin-4-ol]: the IC50 in data set [1] (setting [6]) and in data set [1] (setting [7]) was 368 ± 52 nM in each case.

Take `CCN(C(=O)OCc1ccccc1)C1CCN(CC2CN(Cc3ccccc3)CC2(O)c2ccc(F)cc2)CC1` (centres unmarked) [II-a-b, Benzyl 1-[(1-benzyl-4-(4-fluorophenyl)-4-hydroxypyrrolidin-3-yl)methyl]piperidin-4-yl (ethyl)carbamate]: the IC50 in data set [1] (setting [6]) and in data set [1] (setting [7]) was 565 ± 64.5 nM in each case.

On to `C=CCN(C(=O)OCc1ccc([N+](=O)[O-])cc1)C1CCN(CC2CN(C(=O)c3ccccc3)CC2(O)c2ccccc2)CC1` (centres unmarked) [III-a-b, 4-nitrobenzyl allyl(1-((1-benzoyl-4-hydroxy-4-phenylpyrrolidin-3-yl)methyl)piperidin-4-yl) carbamate], for which the IC50 in data set [1] (setting [6]) and in data set [1] (setting [7]) was 9.7 ± 0.7 nM each time. Moreover, the “activation or antagonism of CXCR4 receptor” value in data set [2] is on record as “do not activate or antagonize”. Moreover, in data set [3], the “activation or antagonism of CCR1 receptor” value is “do not activate or antagonize”. This molecule yielded a CC50 at 24 h in data set [4] of about 30000 nM. In addition, in data set [5], the cytotoxicity on cells result was “no significant cytotoxicity”.

Take `OC1(c2ccc3c(c2)OCO3)CN(Cc2ccccc2)CC1CN1CCC(c2ccccc2)CC1` (centres unmarked) [I-a-a, 1-benzyl-3-(benzo[1,3]dioxol-5-yl)-4-[(4-phenylpiperidin-1-yl)methyl]pyrrolidin-3-ol]: the IC50 in data set [1] (setting [6]) and in data set [1] (setting [7]) was about 10000 nM in each case.

Consider `O=C(C1CCCC1)N1CC(CN2CCC(c3ccccc3)CC2)C(O)(c2ccccc2)C1` (centres unmarked) [I-b-e, Cyclopentyl-(3-hydroxy-3-phenyl-4-[(4-phenylpiperidin-1-yl)methyl]pyrrolidin-1-yl)metha none], for which the IC50 in data set [1] (setting [6]) and in data set [1] (setting [7]) was 1890 ± 615 nM in each case.

On to `C=CCN(C(=O)OCc1ccc([N+](=O)[O-])cc1)C1CCN(CC2CN(Cc3ccccc3)CC2(O)c2ccccc2)CC1` (centres unmarked) [III-a-a, 4-nitrobenzyl allyl(1-((1-benzyl-4-hydroxy-4-phenylpyrrolidin-3-yl)methyl)piperidin-4-yl) carbamate], for which the half-maximal inhibitory concentration (IC50) in data set [1] (setting [6]) and in data set [1] (setting [7]) was about 10000 nM each time. Further, the “activation or antagonism of CXCR4 receptor” value in data set [2] is listed as “do not activate or antagonize”. In addition, in data set [3], the “activation or antagonism of CCR1 receptor” value is given as “do not activate or antagonize”.

As to `C[C@H]1[C@@H](CN2CCC(c3ccccc3)CC2)C(O)(c2ccccc2)CN1Cc1ccccc1` (some centres unmarked) [IV-a-a, 1-benzyl-5-methyl-3-phenyl-4-[(4-phenylpiperi-din-1-yl)methyl]py-rrolidin-3-ol], the IC50 in data set [1] (setting [8]) and in data set [1] (setting [9]) was over 10000 nM each time.

With `OC1(c2ccccc2)CN(Cc2ccccc2)CC1CN1CCC(CCCc2ccccc2)CC1` (centres unmarked) [I-b-g, 1-benzyl-3-phenyl-4-{[4-(3-phenylpropyl)piperidin-1-yl]methyl}pyrrolidin-3-ol], the half-inhibitory concentration (IC50) in data set [1] (setting [6]) and in data set [1] (setting [7]) was 408 ± 10.5 nM in each case.

As for `C=CCN(C(=O)OCc1ccc(OC)cc1)C1CCN(CC2CN(C(=O)C3CCCC3)CC2(O)c2ccccc2)CC1` (centres unmarked) [III-a-i, 4-methoxybenzyl allyl(1-((1-(cyclo-pentanecarbonyl)-4-hydroxy-4-phenylpyrrolidin-3-yl)methyl)piperi-din-4-yl) carbamate], the IC50 in data set [1] (setting [6]) and in data set [1] (setting [7]) was 4.33 nM each time.

With `CCN(C(=O)OCc1ccccc1)C1CCN(CC2CN(Cc3ccccc3)CC2(C)O)CC1` (centres unmarked) [II-a-c], the IC50 in data set [1] (setting [8]) and in data set [1] (setting [9]) was over 10000 nM in each case.

Take `C=CCN(C(=O)Nc1ccccc1)C1CCN(CC2CN(C(=O)C3CCCC3)CC2(O)c2ccccc2)CC1` (centres unmarked) [III-a-k, 1-allyl-1-(1-((1-(cyclopentane-carbonyl)-4-hydroxy-4-phenylpyrrolidin-3-yl)methyl)piperidin-4-yl)-3-phenylurea]: the IC50 in data set [1] (setting [6]) and in data set [1] (setting [7]) was 6.46 nM each time.

Take `C=CCN(C(=O)OCc1ccc(Br)cc1)C1CCN(CC2CN(C(=O)C3CCCC3)CC2(O)c2ccccc2)CC1` (centres unmarked) [III-a-j, 4-bromobenzyl allyl(1-((1-cyclo-pentanecar-bonyl)-4-hydroxy-4-phenylpyrrolidin-3-yl)methyl) piperidin-4-yl) carbamate]: the IC50 in data set [1] (setting [6]) and in data set [1] (setting [7]) was 8.87 nM each time.

As to `O=S(=O)(c1ccccc1)N1CC(CN2CCC(c3ccccc3)CC2)C(O)(c2ccccc2)C1` (centres unmarked) [I-b-d, 3-phenyl-4-[(4-phenylpiperidin-1-yl)methyl]-1-(phenylsulfonyl)pyrrolidin-3-ol], the IC50 in data set [1] (setting [8]) and in data set [1] (setting [9]) was over 10000 nM each time.

Take `OC1(CCCc2ccccc2)CCN(CC2CN(Cc3ccccc3)CC2(O)c2ccc(F)cc2)CC1` (centres unmarked) [I-b-k, 1-{[1-benzyl-4-(4-fluorophenyl)-4-hydroxypyrrolidin-3-yl]methyl}-4-(3-phenylpropyl)piper idin-4-ol]: the IC50 in data set [1] (setting [6]) and in data set [1] (setting [7]) was 2510 nM in each case.

For the molecule `O=C(c1ccccc1I)N1CC(CN2CCC(c3ccccc3)CC2)C(O)(c2ccccc2)C1` (centres unmarked) [I-b-c, (3-hydroxy-3-phenyl-4-[(4-phenylpiperidin-1-yl)methyl]pyrrolidin-1-yl)(2-iodophenyl) methanone], the IC50 in data set [1] (setting [6]) and in data set [1] (setting [7]) was 1160 ± 224 nM throughout.

For `O=C(c1ccccc1)N1CC(CN2CCC(c3ccccc3)CC2)C(O)(c2ccccc2)C1` (centres unmarked) [I-b-b, (3-hydroxy-3-phenyl-4-[(4-phenylpiperidin-1-yl)methyl]pyrrolidin-1-yl)(phenyl)methanone], the results for the IC50 in data set [1] (setting [6]) and in data set [1] (setting [7]) were 2860 ± 860 nM and 2860 ± 60 nM, respectively.

`C=CCN(C(=O)COc1ccccc1)C1CCN(CC2CN(C(=O)C3CCCC3)CC2(O)c2ccccc2)CC1` (centres unmarked) [III-a-l, N-allyl-N-(1-((1-(cyclopen-tanecarbonyl)-4-hydroxy-4-phenylpyrrolidin-3-yl)methyl)piperi-din-4-yl)-3-phenoxy acetamide]: the IC50 in data set [1] (setting [6]) and in data set [1] (setting [7]) was 13.6 nM each time.

With `C=CCN(C(=O)OCc1ccccc1)C1CCN(CC2CN(C(=O)C3CCCC3)CC2(O)c2ccccc2)CC1` (centres unmarked) [III-a-h, benzyl allyl(1-((1-(cyclo-pentanecarbonyl)-4-hydroxy-4-phenylpyrrolidin-3-yl)methyl)piperi-din-4-yl) carbamate], the IC50 in data set [1] (setting [6]) and in data set [1] (setting [7]) was 8.75 nM throughout.

As for `OC1(c2ccc(F)cc2)CN(Cc2ccccc2)CC1CN1CCC(c2ccccc2)CC1` (centres unmarked) [I-b-j, 1-benzyl-3-(4-fluorophenyl)-4-((4-phenylpiperidin-1-yl)methyl)pyrrolidin-3-ol], the half-inhibitory concentration (IC50) in data set [1] (setting [8]) and in data set [1] (setting [9]) was over 10000 nM each time.

These data come from patent publication US20070161634A1, “Compounds as CCR5 antagonists” (priority 2004, published 2007).
